# Measurements from ChEMBL document CHEMBL1781957, “Selective and potent agonists for estrogen receptor beta derived from molecular refinements of salicylaldoximes” (Eur J Med Chem, 2011).
# Experiments:
# [1] = target: T1, Estrogen receptor (Homo sapiens) (UniProt P03372); assay: Displacement of [3H]-estradiol from human full-length ERalpha receptor by competitive radiometric binding assay relative to estradiol
# T1 sequence (whole entry): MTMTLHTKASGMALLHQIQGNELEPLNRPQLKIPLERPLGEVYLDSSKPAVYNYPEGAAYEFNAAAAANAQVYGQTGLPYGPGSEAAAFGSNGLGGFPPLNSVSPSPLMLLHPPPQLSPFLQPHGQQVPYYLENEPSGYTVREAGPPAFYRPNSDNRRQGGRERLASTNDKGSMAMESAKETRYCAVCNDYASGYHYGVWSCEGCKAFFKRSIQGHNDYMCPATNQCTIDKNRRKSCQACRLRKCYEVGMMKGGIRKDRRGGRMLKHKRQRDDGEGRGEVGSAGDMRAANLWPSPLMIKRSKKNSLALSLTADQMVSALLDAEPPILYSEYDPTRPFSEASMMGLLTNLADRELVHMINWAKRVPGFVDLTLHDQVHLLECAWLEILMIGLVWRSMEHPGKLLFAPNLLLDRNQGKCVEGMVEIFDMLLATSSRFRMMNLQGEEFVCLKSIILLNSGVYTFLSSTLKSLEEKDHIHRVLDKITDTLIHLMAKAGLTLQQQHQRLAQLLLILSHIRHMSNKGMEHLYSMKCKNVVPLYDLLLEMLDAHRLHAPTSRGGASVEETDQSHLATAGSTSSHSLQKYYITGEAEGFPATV
# Estrogen receptor beta [2] = target: T2, Estrogen receptor beta (Homo sapiens, UniProt Q92731); assay: Displacement of [3H]-estradiol from human full-length ERbeta receptor by competitive radiometric binding assay relative to estradiol
# Estrogen receptor = target: T3, Estrogen receptor (Homo sapiens, UniProt P03372)
# T3 sequence (P03372 whole entry): T1 sequence (whole entry)
# Estrogen receptor beta [3] = target: T2, Estrogen receptor beta; assay: Agonist activity at human full-length ERbeta receptor expressed in human HEC1 cells co-expressing (ERE)2-pS2-luc gene assessed as transcriptional activation after 24 hrs by luciferase reporter gene assay relative to estradiol; assay type: functional, cell-based; conditions: HEC-1
# Estrogen receptor beta [4] = target: T2, Estrogen receptor beta
# [5] = target: T1, Estrogen receptor (Homo sapiens); assay: Agonist activity at human full-length ERalpha receptor expressed in human HEC1 cells co-expressing (ERE)2-pS2-luc gene assessed as transcriptional activation after 24 hrs by luciferase reporter gene assay relative to estradiol; assay type: functional, cell-based; conditions: HEC-1
# Estrogen receptor beta [6] = target: T2, Estrogen receptor beta; remark: listed apart in the source
# T2 sequence (Q92731 whole entry): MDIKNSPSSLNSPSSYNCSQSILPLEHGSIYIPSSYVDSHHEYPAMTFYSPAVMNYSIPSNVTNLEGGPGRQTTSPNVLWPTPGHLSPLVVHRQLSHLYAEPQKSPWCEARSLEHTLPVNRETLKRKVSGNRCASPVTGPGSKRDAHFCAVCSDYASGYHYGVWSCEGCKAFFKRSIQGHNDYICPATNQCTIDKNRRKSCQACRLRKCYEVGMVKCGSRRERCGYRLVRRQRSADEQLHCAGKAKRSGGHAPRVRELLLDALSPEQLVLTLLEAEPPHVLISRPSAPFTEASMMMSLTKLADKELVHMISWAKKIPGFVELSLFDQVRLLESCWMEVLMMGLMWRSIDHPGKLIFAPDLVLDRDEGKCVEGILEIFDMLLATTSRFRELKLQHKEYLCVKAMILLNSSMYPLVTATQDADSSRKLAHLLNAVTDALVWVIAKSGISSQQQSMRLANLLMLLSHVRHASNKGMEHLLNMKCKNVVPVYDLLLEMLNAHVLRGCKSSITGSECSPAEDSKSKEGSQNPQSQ
Compound,RBA [1] [%],RBA (Estrogen receptor beta [2]) [%],EC50 (Estrogen receptor) [nM],Emax (Estrogen receptor beta [3]) [%],Ki (Estrogen receptor beta [4]) [nM],Emax [5] [%],EC50 (Estrogen receptor beta [6]) [nM]
Cc1c(-c2ccc(O)c(F)c2)cc(Cl)c(O)c1/C=N/O,0.39,7.9,,,,,
Cc1cc(-c2ccc(O)cc2)c(Cl)c(/C=N/O)c1O,0.074,0.64,,,,,
O/N=C/c1c(O)ccc(-c2ccc(O)cc2)c1Cl,4.46,130,0.58,100,0.38,100,0.23
O/N=C/c1ccc(-c2ccc(O)cc2)c(-c2ccc(O)cc2)c1O,0.92,0.35,,,,,
O/N=C/c1c(O)ccc(-c2ccc(O)cc2)c1-c1ccc(O)cc1,88.4,101,0.3,80,,90,0.5
Cc1c(-c2ccc(O)cc2)cc(Cl)c(O)c1/C=N/O,1.47,15.8,,,,,
O/N=C/c1c(O)ccc(-c2ccc(O)c(F)c2)c1Cl,1.88,87.1,8.4,100,0.57,100,1.3
